One assay deals with Ba/F3-EGFR-WT cells. In words: Proliferation assay in BA/F3 (wild type) cells (Cell Titer-Glo). It is filed as cell-based. As to conditions: Mus musculus. In short, it runs like this: (§1)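 Ba/F3 cells stably expressing retrovirally transduced EGFR-WT or EGFR-insSVD; WT cells plated with 10 ng/mL EGF, insSVD cells without EGF. Compound exposure 48 h at 37° C; viability read by CellTiter-Glo luminescence.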
(Cellular ATP, detected with luciferase, serves as a proxy for viable cell number.)

Assay [1] deals with EGFR ins SVD (insertion of SVD between D770 and N771) (Homo sapiens, UniProt P00533, INS767SVD). In words: Exon 20-Mutant-EGFR(D770_N771insSVD) kinase assay (TR-FRET). Format: biochemical. (In general: In TR-FRET formats the signal depends on donor and acceptor labels being close together.)
EGFR ins SVD (insertion of SVD between D770 and N771), sequence (P00533 with tags, fused parts or gaps INS767SVD limits assumed): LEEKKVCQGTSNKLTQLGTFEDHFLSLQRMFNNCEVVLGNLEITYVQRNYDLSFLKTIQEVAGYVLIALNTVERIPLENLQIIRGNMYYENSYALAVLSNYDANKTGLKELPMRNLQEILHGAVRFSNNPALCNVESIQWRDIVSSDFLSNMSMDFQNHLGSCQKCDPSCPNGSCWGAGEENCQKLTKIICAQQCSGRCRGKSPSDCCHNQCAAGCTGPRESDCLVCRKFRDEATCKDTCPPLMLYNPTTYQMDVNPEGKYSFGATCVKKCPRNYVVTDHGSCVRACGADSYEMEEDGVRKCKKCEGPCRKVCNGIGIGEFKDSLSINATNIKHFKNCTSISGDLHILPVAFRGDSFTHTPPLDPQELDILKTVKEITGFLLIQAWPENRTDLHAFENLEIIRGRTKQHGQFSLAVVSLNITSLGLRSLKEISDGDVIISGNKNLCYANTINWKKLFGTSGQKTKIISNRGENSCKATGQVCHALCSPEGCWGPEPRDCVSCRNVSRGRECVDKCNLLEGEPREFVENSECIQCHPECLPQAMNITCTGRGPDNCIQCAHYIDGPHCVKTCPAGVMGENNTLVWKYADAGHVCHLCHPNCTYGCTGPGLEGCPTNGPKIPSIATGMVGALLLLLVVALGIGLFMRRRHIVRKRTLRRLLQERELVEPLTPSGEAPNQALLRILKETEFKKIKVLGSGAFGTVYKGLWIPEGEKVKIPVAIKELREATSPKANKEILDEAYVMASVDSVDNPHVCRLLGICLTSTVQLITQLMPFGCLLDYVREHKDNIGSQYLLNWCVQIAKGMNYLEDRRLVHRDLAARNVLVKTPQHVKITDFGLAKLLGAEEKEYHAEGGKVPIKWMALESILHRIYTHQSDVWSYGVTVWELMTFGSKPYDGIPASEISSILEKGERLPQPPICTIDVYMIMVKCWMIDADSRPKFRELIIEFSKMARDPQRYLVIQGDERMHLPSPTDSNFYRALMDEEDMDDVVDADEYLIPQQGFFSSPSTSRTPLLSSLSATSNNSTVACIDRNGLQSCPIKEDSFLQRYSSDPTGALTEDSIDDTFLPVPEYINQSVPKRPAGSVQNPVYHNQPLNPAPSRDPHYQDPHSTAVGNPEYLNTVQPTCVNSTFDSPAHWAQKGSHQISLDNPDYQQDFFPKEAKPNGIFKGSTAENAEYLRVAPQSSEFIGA
Experimental: Exon 20-Mutant-EGFR(D770_N771insSVD) Kinase Assay
Inhibitory activity of compounds of the present invention against an Epidermal Growth Factor Receptor (EGFR) with an insertion of the amino acids sequence SVD between D770 and N771 was quantified employing the TR-FRET based kinase activity assay as described in the following paragraphs.
For the assay 50 nl of a 100-fold concentrated solution of the test compound in DMSO was pipetted into either a black low volume 384 well microtiter plate or a black 1536 well microtiter plate (both Greiner Bio-One, Frickenhausen, Germany), 2 μl of a solution of EGFR in aqueous assay buffer [50 mM Hepes pH 7.0, 10 mM MgCl2, 1 mM dithiothreitol, 0.5 mM EGTA, 0.3 mM activated sodium ortho-vanadate, 0.005% (w/v) bovine serum albumin, 0.005% (v/v) Tween-20] were added and the mixture was incubated for 15 min at 22° C. to allow pre binding of the test compounds to the enzyme before the start of the kinase reaction. […] The concentration of EGFR was adjusted depending of the activity of the enzyme lot and was chosen appropriate to have the assay in the linear range, typical concentration was 15 pg/μl. The reaction was stopped by the addition of 3 μl of a solution of HTRF detection reagents (83.3 nM streptavidine-XL665 [Cisbio Bioassays, Codolet, France] and 1.67 nM PT66-Tb-Cryptate, a terbium-cryptate labelled anti-phospho-tyrosine antibody from Cisbio Bioassays [instead of the PT66 Tb cryptate PT66 Eu Chelate from Perkin Elmer can also be used]) in an aqueous EDTA-solution (133.3 mM EDTA, 0.2% (w/v) bovine serum albumin in 50 mM HEPES pH 7.5).
(§2) The resulting mixture was incubated 1 h at 22° C. to allow the binding of the biotinylated phosphorylated peptide to the streptavidine-XL665 and the PT66-Tb-Cryptate. Subsequently the amount of phosphorylated substrate was evaluated by measurement of the resonance energy transfer from the PT66-Tb-Cryptate to the streptavidine-XL665.
Assay [2] has as its target EGFR ins ASV (insertion of ASV between V769 and D770). In words: Exon 20-Mutant-EGFR(V769_D770insASV) kinase assay (TR-FRET). It is filed as biochemical, human. Particulars: 2 mM ATP.
Experimental: Exon 20-Mutant-EGFR(V769_D770insASV) Kinase Assay
Inhibitory activity of compounds of the present invention against an Epidermal Growth Factor Receptor (EGFR) with an insertion of the amino acids sequence ASV between V769 and D770 was quantified employing the TR-FRET based kinase activity assay as described in the following paragraphs.
For the assay 50 nl of a 100-fold concentrated solution of the test compound in DMSO was pipetted into either a black low volume 384well microtiter plate or a black 1536 well microtiter plate (both Greiner Bio-One, Frickenhausen, Germany), 2 μl of a solution of EGFR in aqueous assay buffer [50 mM Hepes pH 7.0, 10 mM MgCl2, 1 mM dithiothreitol, 0.5 mM EGTA, 0.3 mM activated sodium ortho-vanadate, 0.005% (w/v) bovine serum albumin, 0.005% (v/v) Tween-20] were added and the mixture was incubated for 15 min at 22° C. to allow pre binding of the test compounds to the enzyme before the start of the kinase reaction. […] The concentration of EGFR was adjusted depending of the activity of the enzyme lot and was chosen appropriate to have the assay in the linear range, typical concentration was 2.5 pg/μl. The reaction was stopped by the addition of 3 μl of a solution of HTRF detection reagents (83.3 nM streptavidine-XL665 [Cisbio Bioassays, Codolet, France] and 1.67 nM PT66-Tb-Cryptate, an terbium-cryptate labelled anti-phospho-tyrosine antibody from Cisbio Bioassays [instead of the PT66 Tb cryptate PT66 Eu Chelate from Perkin Elmer can also be used]) in an aqueous EDTA-solution (133.3 mM EDTA, 0.2% (w/v) bovine serum albumin in 50 mM HEPES pH 7.5).
as §2
For another assay, the target named is Bub1 (Homo sapiens (Human), UniProt O43683). In words: Bub1 kinase assay (TR-FRET, 10 μM ATP). Particulars: mean, read-out: Bub1 kinase assay IC50 [mol/l] (mean). Format: biochemical. The text has this: Bub1-inhibitory activities of compounds described in the present invention were quantified using a time-resolved fluorescence energy transfer (TR-FRET) kinase assay which measures phosphorylation of the synthetic peptide Biotin-Ahx-[…]—SEQ ID NO: 5 (C-terminus in amide form), purchased from e.g. Biosyntan (Berlin, Germany) by the (recombinant) catalytic domain of human Bub1 (amino acids 704-1085), expressed in Hi5 insect cells with an N-terminal His6-tag (SEQ ID NO: 9) and purified by affinity-(Ni-NTA) and size exclusion chromatography.
Bub1, sequence (O43683 704-1085): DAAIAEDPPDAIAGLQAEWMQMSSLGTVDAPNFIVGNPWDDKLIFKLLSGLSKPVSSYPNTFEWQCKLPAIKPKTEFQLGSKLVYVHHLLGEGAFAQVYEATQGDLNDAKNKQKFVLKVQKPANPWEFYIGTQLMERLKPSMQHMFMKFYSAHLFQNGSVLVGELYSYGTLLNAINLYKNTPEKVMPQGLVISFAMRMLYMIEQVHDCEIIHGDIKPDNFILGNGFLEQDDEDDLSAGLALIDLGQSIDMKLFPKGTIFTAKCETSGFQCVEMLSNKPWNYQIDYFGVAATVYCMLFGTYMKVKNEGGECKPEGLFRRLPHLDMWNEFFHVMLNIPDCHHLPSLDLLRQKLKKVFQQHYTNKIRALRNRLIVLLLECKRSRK
In a typical assay 11 different concentrations of each compound (0.1 nM, 0.33 nM, 1.1 nM, 3.8 nM, 13 nM, 44 nM, 0.15 μM, 0.51 μM, 1.7 μM, 5.9 μM and 20 μM) were tested in duplicate within the same microtiter plate. To this end, 100-fold concentrated compound solutions (in DMSO) were previously prepared by serial dilution (1:3.4) of 2 mM stocks in a clear low volume 384-well source microtiter plate (Greiner Bio-One, Frickenhausen, Germany), from which 50 nl of compounds were transferred into a black low volume test microtiter plate from the same supplier. […] The resulting mixture (5 μl final volume) was incubated at 22° C. during 60 min., and the reaction was stopped by the addition of 5 μl of an aqueous EDTA-solution (50 mM EDTA, in 100 mM HEPES pH 7.5 and 0.2% (w/v) bovine serum albumin) which also contained the TR-FRET detection reagents (0.2 μM streptavidin-XL665 [Cisbio Bioassays, Codolet, France] and 1 nM anti-phosho-Serine antibody [Merck Millipore, cat. #35-002] and 0.4 nM LANCE EU-W1024 labeled anti-mouse IgG antibody [Perkin-Elmer, product no. AD0077, alternatively a Terbium-cryptate-labeled anti-mouse IgG antibody from Cisbio Bioassays can be used]). The stopped reaction mixture was further incubated 1 h at 22° C. in order to allow the formation of complexes between peptides and detection reagents. Subsequently, the amount of product was evaluated by measurement of the resonance energy transfer from the Eu-chelate-antibody complex recognizing the Phosphoserine residue to the streptavidin-XL665 bound to the biotin moiety of the peptide. To this end, the fluorescence emissions at 620 nm and 665 nm after excitation at 330-350 nm were measured in a TR-FRET plate reader, e.g. a Rubystar or Pherastar (both from BMG Labtechnologies, Offenburg, Germany) or a Viewlux (Perkin-Elmer) and the ratio of the emissions (665 nm/[…]) was taken as indicator for the amount of phosphorylated substrate. The data were normalised using two sets of control wells for high-(=enzyme reaction without inhibitor=0%=Minimum inhibition) and low-(=all assay components without enzyme=100%=Maximum inhibition) Bub1 activity. IC50 values were calculated by fitting the normalized inhibition data to a 4-parameter logistic equation (Minimum, Maximum, IC50, Hill; Y=Max+(Min−Max)/(1+(X/IC50)Hill)).

In the next assay the test system is Ba/F3-EGFR-insSVD cells. In words: Proliferation assay in BA/F3 (ins SVD) cells (Cell Titer-Glo). Format: cell-based. As to conditions: Mus musculus. In short, it runs like this: as §1
The mark [3] stands for this setting: BaF3, 48 h, Table 10, plated with 10 ng/mL EGF.
The mark [4] stands for this setting: 2 mM ATP, mean, read-out: EGFR ins SVD IC50 [mol/l] (mean).
The mark [5] stands for this setting: Table 9, read-out: mutEGFR (D770_N771insSVD) kinase assay IC50.
Where [6] appears, read: BaF3, 48 h, Table 10, plated without EGF.

The text below walks through data of patent US11339157B1, “4H-pyrrolo[3,2-c]pyridin-4-one derivatives” (Bayer Aktiengesellschaft, priority 2017, dated 2022).

Where “and” joins values, the source holds several entries; their conditions need not be identical. Identical values can stand only once. Like-named read-outs stand apart in the source and are kept apart here.

Regarding `COCCOc1cnccc1-c1[nH]c2c(c1Nc1cc(F)cc(F)c1OC)C(=O)NCC2` [Example 30, 3-[(3,5-difluoro-2-methoxyphenyl)amino]-2-[3-(2-methoxyethoxy)pyridin-4-yl]-1,5,6,7-tetrahydro-4H-pyrrolo[3,2-c]pyridin-4-one], the IC50 in the assay with Ba/F3-EGFR-WT cells (setting [3]) came to 1860 nM; in assay [1] (setting [4]) it was 0.0969 nM; in assay [1] (setting [5]) it was 0.109 nM; on Bub1, 323 nM; in the assay with Ba/F3-EGFR-insSVD cells (setting [6]), 149 nM. Moreover, the “EGFR ins ASV IC50 [mol] (mean)” value in assay [2] was 2.09e-10 mol.
As for `CC(C)(O)COc1cnccc1-c1[nH]c2c(c1Nc1cccc(F)c1)C(=O)NCC2` [Example 4, 3-[(3-fluorophenyl)amino]-2-[3-(2-hydroxy-2-methylpropoxy)pyridin-4-yl]-1,5,6,7-tetrahydro-4H-pyrrolo[3,2-c]pyridin-4-one], the IC50 in the assay with Ba/F3-EGFR-WT cells (setting [3]) is 1610 nM; in assay [1] (setting [4]), under 0.072 nM; in assay [1] (setting [5]) it was under 0.0725 nM; on Bub1, 12.5 nM; with Ba/F3-EGFR-insSVD cells (setting [6]), 329 nM. In assay [2], the “EGFR ins ASV IC50 [mol] (mean)” value worked out at 1.31e-10 mol.
`COCCOc1cnccc1-c1[nH]c2c(c1Nc1ccc(F)c(F)c1OC)C(=O)NCC2` [Example 28, 3-[(3,4-difluoro-2-methoxyphenyl)amino]-2-[3-(2-methoxyethoxy)pyridin-4-yl]-1,5,6,7-tetrahydro-4H-pyrrolo[3,2-c]pyridin-4-one]: the IC50 came to 3670 nM in the assay on Ba/F3-EGFR-WT cells (setting [3]); 0.738 nM in assay [1] (setting [4]); 0.54 nM in assay [1] (setting [5]); 565 nM on Bub1; 644 nM with Ba/F3-EGFR-insSVD cells (setting [6]). The “EGFR ins ASV IC50 [mol] (mean)” value in assay [2] stood at 2.69e-08 mol.
As for `COc1c(F)cccc1Nc1c(-c2ccncc2OCC(C)(C)OC)[nH]c2c1C(=O)NCC2` [Example 17, 3-[(3-fluoro-2-methoxyphenyl)amino]-2-[3-(2-methoxy-2-methylpropoxy)pyridin-4-yl]-1,5,6,7-tetrahydro-4H-pyrrolo[3,2-c]pyridin-4-one], the IC50 in the assay with Ba/F3-EGFR-WT cells (setting [3]) stood at 397 nM; in assay [1] (setting [4]), 0.113 nM; in assay [1] (setting [5]), 0.113 nM; at Bub1 it was 55.1 nM; in the assay on Ba/F3-EGFR-insSVD cells (setting [6]) it was 11.9 nM. Further, in assay [2], the “EGFR ins ASV IC50 [mol] (mean)” value is 1.77e-10 mol.
As for `CN(C)CCOc1cnccc1-c1[nH]c2c(c1Nc1cccc(F)c1)C(=O)NCC2` [Example 5, 2-{3-[2-(dimethylamino)ethoxy]pyridin-4-yl}-3-[(3-fluorophenyl)amino]-1,5,6,7-tetrahydro-4H-pyrrolo[3,2-c]pyridin-4-one], the IC50 worked out at 1.56 nM in assay [1] (setting [4]), 1.56 nM in assay [1] (setting [5]), 32.4 nM on Bub1 and 567 nM in the assay with Ba/F3-EGFR-insSVD cells (setting [6]). Besides, the “EGFR ins ASV IC50 [mol] (mean)” value in assay [2] was 4.31e-09 mol.
`COC(C)(C)COc1cnccc1-c1[nH]c2c(c1Nc1cccc(F)c1)C(=O)NCC2` [Example 6, 3-[(3-fluorophenyl)amino]-2-[3-(2-methoxy-2-methylpropoxy)pyridin-4-yl]-1,5,6,7-tetrahydro-4H-pyrrolo[3,2-c]pyridin-4-one]: the IC50 in the assay with Ba/F3-EGFR-WT cells (setting [3]) is 394 nM; in assay [1] (setting [4]), under 0.072 nM; in assay [1] (setting [5]), < 0.0725 nM (2×) and 0.104 nM and 0.0949 nM; at Bub1, 26.9 nM; with Ba/F3-EGFR-insSVD cells (setting [6]), 63.3 nM. For the same compound, in assay [2], the “EGFR ins ASV IC50 [mol] (mean)” value turned out to be 2.12e-10 mol.
As for `COC(C)(C)COc1cnccc1-c1[nH]c2c(c1Nc1cccc(F)c1OCC(F)F)C(=O)NCC2` [Example 27, 3-{[2-(2,2-difluoroethoxy)-3-fluorophenyl]amino}-2-[3-(2-methoxy-2-methylpropoxy)pyridin-4-yl]-1,5,6,7-tetrahydro-4H-pyrrolo[3,2-c]pyridin-4-one], the IC50 in the assay with Ba/F3-EGFR-WT cells (setting [3]) was 2500 nM; in assay [1] (setting [4]), 2.14 nM; in assay [1] (setting [5]), 2.14 nM; on Bub1 it was 70.1 nM; in the assay with Ba/F3-EGFR-insSVD cells (setting [6]), 498 nM. The “EGFR ins ASV IC50 [mol] (mean)” value in assay [2] came out at 7.09e-09 mol.
`COCCOc1cnccc1-c1[nH]c2c(c1Nc1ccccc1CC(F)F)C(=O)NCC2` [Example 15, 3-{[2-(2,2-difluoroethyl)phenyl]amino}-2-[3-(2-methoxyethoxy)pyridin-4-yl]-1,5,6,7-tetrahydro-4H-pyrrolo[3,2-c]pyridin-4-one]: the IC50 in the assay with Ba/F3-EGFR-WT cells (setting [3]) came out at 2870 nM; in assay [1] (setting [4]), 0.489 nM; in assay [1] (setting [5]) it was 0.489 nM; at Bub1, 187 nM; in the assay with Ba/F3-EGFR-insSVD cells (setting [6]), 409 nM. Moreover, in assay [2], the “EGFR ins ASV IC50 [mol] (mean)” value was determined as 1.34e-09 mol.
As for `COCCOc1cnccc1-c1[nH]c2c(c1Nc1ccccc1OC(F)F)C(=O)NCC2` [Example 11, 3-{[2-(difluoromethoxy)phenyl]amino}-2-[3-(2-methoxyethoxy)pyridin-4-yl]-1,5,6,7-tetrahydro-4H-pyrrolo[3,2-c]pyridin-4-one], the IC50 in the assay with Ba/F3-EGFR-WT cells (setting [3]) amounted to 1780 nM; in assay [1] (setting [4]) it was 0.22 nM; in assay [1] (setting [5]), 0.292 nM; on Bub1, 192 nM; in the assay with Ba/F3-EGFR-insSVD cells (setting [6]), 357 nM. In assay [2], the “EGFR ins ASV IC50 [mol] (mean)” value was 4.25e-09 mol.
Regarding `COCCOc1cnccc1-c1[nH]c2c(c1Nc1cccc(F)c1C)C(=O)NCC2` [Example 20, 3-[(3-fluoro-2-methylphenyl)amino]-2-[3-(2-methoxyethoxy)pyridin-4-yl]-1,5,6,7-tetrahydro-4H-pyrrolo[3,2-c]pyridin-4-one], the IC50 in the assay with Ba/F3-EGFR-WT cells (setting [3]) came out at 625 nM; in assay [1] (setting [4]), 0.149 nM; in assay [1] (setting [5]) it was 0.149 nM; on Bub1, 67.4 nM; in the assay with Ba/F3-EGFR-insSVD cells (setting [6]) it was 48.3 nM. Moreover, in assay [2], the “EGFR ins ASV IC50 [mol] (mean)” value is 3.22e-10 mol.
As for `O=C1NCCc2[nH]c(-c3ccncc3OCc3ccccc3)c(Nc3cccc(F)c3)c21` [Example 3, 2-[3-(benzyloxy)pyridin-4-yl]-3-[(3-fluorophenyl)amino]-1,5,6,7-tetrahydro-4H-pyrrolo[3,2-c]pyridin-4-one], the IC50 in the assay with Ba/F3-EGFR-WT cells (BaF3, Table 10, plated with 10 ng/mL EGF, 48 h) was 2160 nM; in assay [1] (setting [4]), 0.28 nM; in assay [1] (setting [5]) it was 0.28 nM; at Bub1, 47.6 nM; in the assay with Ba/F3-EGFR-insSVD cells (BaF3, Table 10, plated without EGF, 48 h) it was 587 nM. For the same compound, the “EGFR ins ASV IC50 [mol] (mean)” value in assay [2] worked out at 6.85e-09 mol.
With `COCCOc1cnccc1-c1[nH]c2c(c1Nc1cc(F)cc(F)c1)C(=O)NCC2` [Example 9, 3-[(3,5-difluorophenyl)amino]-2-[3-(2-methoxyethoxy)pyridin-4-yl]-1,5,6,7-tetrahydro-4H-pyrrolo[3,2-c]pyridin-4-one], the IC50 in the assay on Ba/F3-EGFR-WT cells (setting [3]) was 376 nM; in assay [1] (setting [4]), under 0.072 nM; in assay [1] (setting [5]), 0.36 nM and 0.388 nM and 0.0776 nM and < 0.0725 nM and 0.1 nM and 0.0962 nM and 0.196 nM and 0.206 nM; on Bub1 it was 27.2 nM; with Ba/F3-EGFR-insSVD cells (setting [6]) it was 121 nM. Besides, the “EGFR ins ASV IC50 [mol] (mean)” value in assay [2] worked out at 6.15e-09 mol.
Take `COc1c(F)cc(F)cc1Nc1c(-c2ccncc2OCC(C)(C)OC)[nH]c2c1C(=O)NCC2` [Example 31, 3-[(3,5-difluoro-2-methoxyphenyl)amino]-2-[3-(2-methoxy-2-methylpropoxy)pyridin-4-yl]-1,5,6,7-tetrahydro-4H-pyrrolo[3,2-c]pyridin-4-one]: the IC50 with Ba/F3-EGFR-WT cells (setting [3]) worked out at 1710 nM; in assay [1] (setting [4]), 0.0988 nM; in assay [1] (setting [5]) it was 0.193 nM; at Bub1, 265 nM; in the assay with Ba/F3-EGFR-insSVD cells (setting [6]), 158 nM. The “EGFR ins ASV IC50 [mol] (mean)” value in assay [2] was found to be 1.61e-10 mol.
